Source: PubChem BioAssay AID1963426 (Molecular Pharmacology Branch, DTP, NCI, 2024)
Values belong to the molecule of their own block, whether it stands above or below them.

System: 186277-243-T-J2-PDC complex spheroid growth, % test/control
Experiment: Anticancer human tumor 186277-243-T-J2-PDC patient-derived colon adenocarcinoma cell line growth inhibition [Asc]
Settings: for IC50: curve of first compound; for viability, T/C: stronger effect = lower value
Summary of the method: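 Tumor cells were grown as complex spheroids with human endothelial cells (HUVEC) and human mesenchymal stem cells as stroma. Agents were tested alone and in combination, in half-log steps down from the clinical Cmax, or from 10 microM where Cmax was unknown.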
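Note: spheroids exposed to agents for 7 days.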
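Throughout, for viability, T/C: 100% = DMSO vehicle control wells.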

IC50 (second compound 0.1 µM): 178 nM | IC50 (second compound 0.316 µM): 127 nM | IC50 (second compound 1 µM): 114 nM | IC50 (second compound 3.16 µM): 91.9 nM | IC50 (second compound 10 µM): 87.3 nM
Structure (SMILES): C#Cc1c(F)ccc2cc(O)cc(-c3ncc4c(N5CC6CCC(C5)N6)nc(OCC56CCCN5CC(F)C6)nc4c3F)c12 (stereo not given) + Cc1c(S(C)(=O)=O)c(-c2cc(F)cc(N3CCN(c4ccc(NS(=O)(=O)c5ccc(NC(CCN6CCC(C(=O)OCCCP(=O)(O)O)CC6)CSc6ccccc6)c(S(=O)(=O)C(F)(F)F)c5)cc4)CC3)c2)c(-c2ccc(Cl)cc2)n1C(C)C
viability, T/C (second compound 0.1 µM, first compound 0.0316 µM): 91.5% | viability, T/C (second compound 0.1 µM, first compound 0.1 µM): 69.7% | viability, T/C (second compound 0.1 µM, first compound 0.316 µM): 30.2% | viability, T/C (second compound 0.1 µM, first compound 1 µM): 11.3% | viability, T/C (second compound 0.1 µM, first compound 3.16 µM): 6.43% | viability, T/C (second compound 0.1 µM, first compound 10 µM): 5.27% | viability, T/C (second compound 0.316 µM, first compound 0.0316 µM): 115% | viability, T/C (second compound 0.316 µM, first compound 0.1 µM): 56.9% | viability, T/C (second compound 0.316 µM, first compound 0.316 µM): 23.6% | viability, T/C (second compound 0.316 µM, first compound 1 µM): 7.76% | viability, T/C (second compound 0.316 µM, first compound 3.16 µM): 3.89% | viability, T/C (second compound 0.316 µM, first compound 10 µM): 3.47% | viability, T/C (second compound 1 µM, first compound 0.0316 µM): 86.3% | viability, T/C (second compound 1 µM, first compound 0.1 µM): 54% | viability, T/C (second compound 1 µM, first compound 0.316 µM): 18.7% | viability, T/C (second compound 1 µM, first compound 1 µM): 5.48% | viability, T/C (second compound 1 µM, first compound 3.16 µM): 2.03% | viability, T/C (second compound 1 µM, first compound 10 µM): 1.87% | viability, T/C (second compound 3.16 µM, first compound 0.0316 µM): 87% | viability, T/C (second compound 3.16 µM, first compound 0.1 µM): 47.1% | viability, T/C (second compound 3.16 µM, first compound 0.316 µM): 8.29% | viability, T/C (second compound 3.16 µM, first compound 1 µM): 2.66% | viability, T/C (second compound 3.16 µM, first compound 3.16 µM): 1.51% | viability, T/C (second compound 3.16 µM, first compound 10 µM): 1.34% | viability, T/C (second compound 10 µM, first compound 0.0316 µM): 76.1% | viability, T/C (second compound 10 µM, first compound 0.1 µM): 46.5% | viability, T/C (second compound 10 µM, first compound 0.316 µM): 5.7% | viability, T/C (second compound 10 µM, first compound 1 µM): 1.72% | viability, T/C (second compound 10 µM, first compound 3.16 µM): 0.91% | viability, T/C (second compound 10 µM, first compound 10 µM): 0.74%

IC50 (second compound 0.1 µM): > 3000 nM | IC50 (second compound 0.316 µM): > 3000 nM | IC50 (second compound 1 µM): > 3000 nM | IC50 (second compound 3.16 µM): > 3000 nM | IC50 (second compound 10 µM): > 3000 nM
Structure (SMILES): Cc1nc(N2CCC3(CC2)COC(C)C3N)c(CO)nc1Sc1ccnc(N)c1Cl (stereo not given) + Cc1c(S(C)(=O)=O)c(-c2cc(F)cc(N3CCN(c4ccc(NS(=O)(=O)c5ccc(NC(CCN6CCC(C(=O)OCCCP(=O)(O)O)CC6)CSc6ccccc6)c(S(=O)(=O)C(F)(F)F)c5)cc4)CC3)c2)c(-c2ccc(Cl)cc2)n1C(C)C
viability, T/C (second compound 0.1 µM, first compound 0.00949 µM): 112% | viability, T/C (second compound 0.1 µM, first compound 0.03 µM): 99% | viability, T/C (second compound 0.1 µM, first compound 0.0949 µM): 106% | viability, T/C (second compound 0.1 µM, first compound 0.3 µM): 116% | viability, T/C (second compound 0.1 µM, first compound 0.949 µM): 98.1% | viability, T/C (second compound 0.1 µM, first compound 3 µM): 96.1% | viability, T/C (second compound 0.316 µM, first compound 0.00949 µM): 116% | viability, T/C (second compound 0.316 µM, first compound 0.03 µM): 94.9% | viability, T/C (second compound 0.316 µM, first compound 0.0949 µM): 112% | viability, T/C (second compound 0.316 µM, first compound 0.3 µM): 117% | viability, T/C (second compound 0.316 µM, first compound 0.949 µM): 107% | viability, T/C (second compound 0.316 µM, first compound 3 µM): 110% | viability, T/C (second compound 1 µM, first compound 0.00949 µM): 116% | viability, T/C (second compound 1 µM, first compound 0.03 µM): 97.7% | viability, T/C (second compound 1 µM, first compound 0.0949 µM): 114% | viability, T/C (second compound 1 µM, first compound 0.3 µM): 121% | viability, T/C (second compound 1 µM, first compound 0.949 µM): 126% | viability, T/C (second compound 1 µM, first compound 3 µM): 107% | viability, T/C (second compound 3.16 µM, first compound 0.00949 µM): 112% | viability, T/C (second compound 3.16 µM, first compound 0.03 µM): 104% | viability, T/C (second compound 3.16 µM, first compound 0.0949 µM): 111% | viability, T/C (second compound 3.16 µM, first compound 0.3 µM): 115% | viability, T/C (second compound 3.16 µM, first compound 0.949 µM): 111% | viability, T/C (second compound 3.16 µM, first compound 3 µM): 121% | viability, T/C (second compound 10 µM, first compound 0.00949 µM): 97.6% | viability, T/C (second compound 10 µM, first compound 0.03 µM): 96.3% | viability, T/C (second compound 10 µM, first compound 0.0949 µM): 115% | viability, T/C (second compound 10 µM, first compound 0.3 µM): 104% | viability, T/C (second compound 10 µM, first compound 0.949 µM): 100% | viability, T/C (second compound 10 µM, first compound 3 µM): 111%
